Series [1] can be described thus: Decomposition rate constant. Format: physicochemical. To be noted: 80° C.
A short description of another series: Solubility (15° C.). Format: physicochemical. The settings on record: for Solubility in DMF: dimethylformamide (DMF); for solubility: water.

Bounds are passed on as bounds.

`C=CCNC(=O)C(C)(C)N=NC(C)(C)C(=O)NCC=C` [Compound (2), 2,2'-azobis[N-(2-propenyl)-2-methylpropionamide]]: in series [1], the Decomposition rate constant was 2.80 × 10^-6 sec.^-1. In “Solubility (15° C.)”, the Solubility in acetone was ≥ 10%, the “Solubility in DMF” value is on record as ≥ 10%, the Solubility in methanol is ≥ 10% and the Solubility in toluene was ≥ 10%. Further, the solubility (as a rule, how much of the substance goes into solution per volume) in the series “Solubility (15° C.)” is ≤ 10000 µg/mL.
For the compound `CC(C)(N=NC(C)(C)C(=O)NCc1ccc(Cl)cc1)C(=O)NCc1ccc(Cl)cc1` [Compound (3), 2,2'-azobis[N-(p-chlorobenzyl)-2-methylpropionamide]], in the series “Solubility (15° C.)”, the Solubility in acetone is on record as ≥ 10%, the “Solubility in DMF” value is given as ≥ 10%, the Solubility in methanol is ~5% and the Solubility in toluene is recorded as ≤ 1%. The solubility in the series “Solubility (15° C.)” is ≤ 10000 µg/mL.
As to `CC(C)(N=NC(C)(C)C(=O)NCc1cccnc1)C(=O)NCc1cccnc1` [Compound (4), 2,2'-azobis[N-[(pyridin-3-yl)methyl]-2-methylpropionamide]·2H2 O], in “Solubility (15° C.)”, the Solubility in acetone worked out at 3%, the “Solubility in DMF” value was 1.5%, the Solubility in methanol is listed as ≥ 10% and the solubility was ≤ 10000 µg/mL.
The like results for `CC(C)(N=NC(C)(C)C(=O)NCc1ccncc1)C(=O)NCc1ccncc1` [Compound (5), 2,2'-azobis[N-[(pyridin-4-yl)methyl]-2-methylpropionamide]·2H2 O] were, in that order, ≤ 1%, 3%, ~9% and ≤ 10000 µg/mL.
Consider `CC(C)(N=NC(C)(C)C(=O)NCC1CCNCC1)C(=O)NCC1CCNCC1` [Compound (6), 2,2'-azobis[N-[(piperidin-4-yl)methyl]2-methylpropionamide]·2HCl], for which, in “Solubility (15° C.)”, the Solubility in acetone was ≤ 1%, the “Solubility in DMF” value is ≤ 1%, the Solubility in methanol is on record as ≥ 10% and the Solubility in toluene is listed as ≤ 1%. For the same compound, in the series “Solubility (15° C.)”, the solubility is ≥ 100000 µg/mL.
Consider `CC(C)(N=NC(C)(C)C(=O)NCCN1CCNCC1)C(=O)NCCN1CCNCC1` [Compound (7)], for which, in the series “Solubility (15° C.)”, the Solubility in acetone is listed as ≤ 1%, the “Solubility in DMF” value was 1.5%, the Solubility in methanol is ≥ 10% and the solubility is ≥ 100000 µg/mL.

These data come from patent publication US5001228A, “Bis-alkylamide azo polymerization initiators” (Wako Pure Chemical Industries, Ltd., priority 1988, dated 1991).
